For data set [1], the target named is T1, DNA-PK (h) (Homo sapiens, UniProt P78527).
T1 construct: Eurofins Pharma Discovery Service (contract assay)
Briefly: DNA-PK kinase inhibitory activity (HTRF, Eurofins). The following applies: ATP: 10 μM. Type of data set: biochemical. The procedure:
(§1) This experiment was tested at Eurofins Pharma Discovery Service, Reaction Biology Corp. (RBC)
(§2) […] DNA-PK: Mg/ATP; GST-cMyc-p53; EDTA; Ser15 antibody; ATP: 10 μM; biotinylated phosphatidylinositol-3,4,5-triphosphate; GST label GRP1 PH domain; streptavidin and phycocyanin; europium-labelled monoclonal antibody against GST.
DNA-PK (h) was incubated in a determination buffer containing 50 nM GST-cMyc-p53 and Mg/ATP (density as required). The reaction was initiated by adding a mixture of Mg/ATP. After incubating at room temperature for 30 min, a termination solution containing EDTA was added to terminate the reaction. Finally, a detection buffer (containing labeled anti-GST monoclonal antibody and europium-labeled anti-phosphate Ser15 antibody against phosphorylated p53) was added. Then, the board was read in time-resolved fluorescence mode, and a Homogeneous Time Resolved Fluorescence (HTRF) signal was measured according to the formula HTRF=10000×(Em665 nm/Em620 nm).
Background: TR-FRET usually uses a lanthanide donor and a delayed reading to cut background.

In data set [2] the target is T2, PI3K (p110σ/p85α) (Homo sapiens, UniProt O00329).
T2 construct: Eurofins Pharma Discovery Service (contract assay)
Briefly: PI3K (p110σ/p85α) kinase inhibitory activity (HTRF). Type of data set: biochemical.

In data set [3] the target is T3, PI3K (p110α/p85α) (Homo sapiens, UniProt P42336).
T3 construct: Eurofins Pharma Discovery Service (contract assay)
Briefly: PI3K (p110α/p85α) kinase inhibitory activity (HTRF). Type of data set: biochemical. The procedure: as §1, §2
PI3K (p110α/p85α) was incubated in a determination buffer containing phosphatidylinositol 4,5-diphosphate and Mg/ATP (density as required). The reaction was initiated by adding an ATP solution. After incubating at room temperature for 30 min, a termination solution containing EDTA and biotinylated phosphatidylinositol-3,4,5-triphosphate was added to terminate the reaction. Finally, a detection buffer (containing labeled anti-GST monoclonal antibody, PH domain of GRP1 with GST label and streptavidin and phycyanin and […]) was added. Then, the board was read in time-resolved fluorescence mode, and an HTRF signal was measured according to the formula HTRF=10000×(Em665 nm/Em620 nm).

A short description of data set [4]: Pharmacokinetic evaluation in mice, IV and PO. Type of data set: in vivo, Balb/c female mice. The protocol: The tested compound was mixed with 10% DMSO/50% PEG400/40% water, vortexized and ultrasonic to prepare 0.2 mg/mL or 0.4 mg/ml, approximately clarified solution, which was filtered by a microporous membrane and then standby. Balb/c female mice of 18-20 g were selected and given the candidate compound solution intravenously at a dose of 1 or 2 mg/kg. The tested compound was mixed with 10% DMSO/50% PEG400/40% water, vortexized and ultrasonic to prepare 0.2 mg/mL or 1 mg/mL approximately clarified solution, which was filtered by a microporous membrane and then standby. Balb/c female mice of 18 to 20 g were selected and given orally the candidate compound solution at a dose of 2 or 10 mg/kg. Whole blood was collected for a certain period of time, and plasma was prepared. Drug concentration was analyzed by LC-MS/MS method, and pharmacokinetic parameters were calculated by Phoenix WinNonlin software (US Pharsight company).
C0: instantaneous concentration required after intravenous injection; Cmax: the highest blood concentration after administration; Tmax: time required to reach peak concentration after administration; T1/2: the time required for blood drug concentration to decrease by half; Vdss: apparent volume of distribution, which refers to the ratio constant of drug dosage to blood concentration when a drug reaches dynamic equilibrium in vivo. Cl: clearance rate, referring to drug apparent distribution volume number removed from the body per unit time; Tlast: time of last detection point: AUC0-last: an area under a drug duration curve, referring to an area surrounded by the blood drug concentration curve on the time axis; Bioavailability: a measure of the rate and extent of drug absorption into the blood circulation, which was an important index to evaluate drug absorption degree.

The subject of data set [5] is human small cell lung cancer NCI-H69 xenograft tumor model. Briefly: NCI-H69 xenograft, mono and combination with etoposide, 24-day experiment (Table 8). Type of data set: in vivo, BALB/c nude mice. As to conditions: etoposide 10 mg/kg alone. The procedure:
Experiment example 3: in vivo pharmacodynamics of human small cell lung cancer NCI-H69 cell subcutaneous xenograft tumor BALB/c nude mouse model:
Experimental animals: Female BALB/c nude mice, 6-8 weeks old, weighing 15-22 grams; supplier: Shanghai Linchang Biotechnology Co., LTD. (Linchang, Shanghai)
Human small cell lung cancer NCI-H69 cells (ATCC, item number: HTB-119 and ECACC-95111733) were cultured in vitro in a culture condition of RPMI-1640 medium with 10% fetal bovine serum, 100 U/mL penicillin and 100 μg/mL streptomycin, incubated at 37° C. and 5% CO2. Conventional passage was carried out twice a week. When cell saturation was 80%-90% and the number reaches the requirement, cells were collected, counted and inoculated.
0.2 mL (10×10^6) NCI-H69 cells (with matrix glue, and volume ratio of 1:1) were subcutaneously inoculated into a right back of each mouse, and group administration was initiated when the average tumor volume reaches about 110-120 mm^3.
The tested compound was prepared as a 5 mg/mL clarified solution with 10% DMSO+50% polyethylene glycol 400+40% water as the solvent.
The experimental indicators refers to study whether tumor growth was inhibited, delayed, or cured. Tumor diameter was measured twice a week with a vernier caliper. The calculation formula of the tumor volume was V=0.5a×b^2, and a and b represent the long diameter and short diameter of the tumor, respectively.
The antitumor efficacy of the compound was evaluated by TGI (%) or relative tumor proliferation rate T/C (%). TGI (%) reflects the tumor growth inhibition rate. The calculation of TGI (%): TGI (%)=[1−(average tumor volume at the end of administration of a certain treatment group−average tumor volume at the beginning of administration of the treatment group)/(average tumor volume at the end of treatment in solvent control group−average tumor volume at the beginning of treatment in solvent control group)]×control group.
Relative tumor proliferation rate T/C (%): the calculation formula was as follows: T/C %=[…] TRTV/CRTV group (TRTV: treatment group RTV; CRTV: negative control group RTV). According to results of tumor measurement, Relative Tumor Volume (RTV) was calculated by the formula RTV=Vt/V0, where V0 was the average tumor volume measured in group administration (i.e., d0), and Vt was the average tumor volume measured in a certain single measurement. TRTV and CRTV collect data on the same day.
Statistic analysis includes an average value and a standard error (SEM) of tumor volume at each time point for each group. […] If there was no significant difference in F value, Dunnet (2-sided) method was applied to analysis. All data were analyzed using SPSS 17.0. P<0.05 was considered as having a significant difference.

The mark [6] stands for this setting: female, Balb/c, IV(1 mg/kg), mouse plasma.
The mark [7] stands for this setting: female, Balb/c, PO(2 mg/kg), mouse plasma.

SMILES strings stand for the structures.

The results in this text go back to US20220267310A1, “QUINAZOLINE AND CINNOLINE DERIVATIVES AS DNA-PK INHIBITOR” (MEDSHINE DISCOVERY INC., priority 2019, published 2022).

T3 sequence (P42336 whole entry, species assumed): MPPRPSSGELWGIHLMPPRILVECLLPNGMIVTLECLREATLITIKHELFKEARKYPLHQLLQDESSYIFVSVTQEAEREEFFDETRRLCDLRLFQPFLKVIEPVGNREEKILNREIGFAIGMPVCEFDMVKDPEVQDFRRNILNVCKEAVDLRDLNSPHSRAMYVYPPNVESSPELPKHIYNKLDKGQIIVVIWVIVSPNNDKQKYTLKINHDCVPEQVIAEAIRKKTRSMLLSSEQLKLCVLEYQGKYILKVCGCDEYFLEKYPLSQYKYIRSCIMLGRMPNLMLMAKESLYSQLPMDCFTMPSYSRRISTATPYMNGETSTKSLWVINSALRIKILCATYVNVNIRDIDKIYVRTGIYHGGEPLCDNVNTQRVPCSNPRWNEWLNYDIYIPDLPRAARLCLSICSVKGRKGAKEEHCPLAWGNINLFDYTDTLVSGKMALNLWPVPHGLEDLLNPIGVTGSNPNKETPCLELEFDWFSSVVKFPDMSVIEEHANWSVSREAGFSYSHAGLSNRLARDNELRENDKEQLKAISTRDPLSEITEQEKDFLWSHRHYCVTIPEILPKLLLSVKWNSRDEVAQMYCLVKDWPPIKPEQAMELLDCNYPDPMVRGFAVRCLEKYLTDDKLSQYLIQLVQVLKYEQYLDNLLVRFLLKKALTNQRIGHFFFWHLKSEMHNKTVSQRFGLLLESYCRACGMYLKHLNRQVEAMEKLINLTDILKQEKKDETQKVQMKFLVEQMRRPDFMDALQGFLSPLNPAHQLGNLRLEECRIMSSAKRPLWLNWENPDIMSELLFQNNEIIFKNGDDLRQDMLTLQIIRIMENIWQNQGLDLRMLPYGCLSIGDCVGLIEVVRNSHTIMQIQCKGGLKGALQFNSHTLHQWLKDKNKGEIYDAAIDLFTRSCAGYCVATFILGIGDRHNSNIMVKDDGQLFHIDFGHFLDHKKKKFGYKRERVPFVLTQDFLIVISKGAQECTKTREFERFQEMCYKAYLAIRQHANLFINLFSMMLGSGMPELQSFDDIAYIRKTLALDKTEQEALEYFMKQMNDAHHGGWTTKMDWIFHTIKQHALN
T3 sequence (P27986 whole entry partner, species assumed): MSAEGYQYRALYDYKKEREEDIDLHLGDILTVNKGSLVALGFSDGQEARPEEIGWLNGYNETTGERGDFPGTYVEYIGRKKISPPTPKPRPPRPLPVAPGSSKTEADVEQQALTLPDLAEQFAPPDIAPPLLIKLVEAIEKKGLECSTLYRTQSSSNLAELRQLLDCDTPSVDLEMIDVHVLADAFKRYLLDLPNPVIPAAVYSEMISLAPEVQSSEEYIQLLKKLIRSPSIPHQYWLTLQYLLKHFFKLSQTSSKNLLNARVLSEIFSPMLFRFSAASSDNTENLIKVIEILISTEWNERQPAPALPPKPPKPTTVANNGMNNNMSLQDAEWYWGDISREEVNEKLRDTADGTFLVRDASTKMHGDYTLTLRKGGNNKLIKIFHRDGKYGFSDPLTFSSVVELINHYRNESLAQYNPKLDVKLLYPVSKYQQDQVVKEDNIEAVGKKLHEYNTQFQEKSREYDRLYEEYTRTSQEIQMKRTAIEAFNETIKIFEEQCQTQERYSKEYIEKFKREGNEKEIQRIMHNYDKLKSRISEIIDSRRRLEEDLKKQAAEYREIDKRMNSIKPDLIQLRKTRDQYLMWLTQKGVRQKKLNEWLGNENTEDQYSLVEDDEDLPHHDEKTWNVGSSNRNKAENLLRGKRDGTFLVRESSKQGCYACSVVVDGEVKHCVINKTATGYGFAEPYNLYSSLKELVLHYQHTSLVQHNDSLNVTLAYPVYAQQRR
T2 sequence (O00329 whole entry): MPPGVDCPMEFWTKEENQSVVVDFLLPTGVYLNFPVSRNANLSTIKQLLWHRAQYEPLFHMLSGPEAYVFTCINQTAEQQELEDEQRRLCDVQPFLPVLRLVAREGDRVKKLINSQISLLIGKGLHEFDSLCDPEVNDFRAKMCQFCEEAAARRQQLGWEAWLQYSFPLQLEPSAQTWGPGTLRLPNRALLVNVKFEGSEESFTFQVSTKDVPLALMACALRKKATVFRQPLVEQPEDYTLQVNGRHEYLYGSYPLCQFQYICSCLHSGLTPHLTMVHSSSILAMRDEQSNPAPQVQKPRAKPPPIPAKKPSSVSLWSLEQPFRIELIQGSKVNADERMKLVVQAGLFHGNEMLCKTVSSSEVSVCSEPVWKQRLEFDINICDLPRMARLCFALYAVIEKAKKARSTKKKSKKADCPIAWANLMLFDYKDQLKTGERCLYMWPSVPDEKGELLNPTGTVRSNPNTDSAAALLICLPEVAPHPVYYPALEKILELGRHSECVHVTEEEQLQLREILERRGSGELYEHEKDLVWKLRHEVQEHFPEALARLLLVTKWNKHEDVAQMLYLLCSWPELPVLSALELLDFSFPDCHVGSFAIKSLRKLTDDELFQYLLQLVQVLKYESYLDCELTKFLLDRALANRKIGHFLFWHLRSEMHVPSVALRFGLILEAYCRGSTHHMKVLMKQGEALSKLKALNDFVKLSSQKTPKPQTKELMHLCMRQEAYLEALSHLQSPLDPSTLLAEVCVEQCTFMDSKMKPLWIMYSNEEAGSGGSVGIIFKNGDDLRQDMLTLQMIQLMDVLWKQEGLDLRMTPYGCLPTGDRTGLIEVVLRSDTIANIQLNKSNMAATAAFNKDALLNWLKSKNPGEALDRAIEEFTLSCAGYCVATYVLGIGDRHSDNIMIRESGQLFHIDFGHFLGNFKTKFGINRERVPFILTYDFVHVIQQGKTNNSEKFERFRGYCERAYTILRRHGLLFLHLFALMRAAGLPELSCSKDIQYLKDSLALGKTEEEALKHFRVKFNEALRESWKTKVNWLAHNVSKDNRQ
T2 sequence (P27986 whole entry partner): as the sequence (P27986 whole entry partner, species assumed) above

On to `COc1ccc(C(O)c2cc(-c3ccnc4cc(N5CCOCC5)ccc34)c(F)cc2Cl)nn1` (single isomer, unassigned) [Embodiment 1], for which, in data set [1], the IC50 was determined as 82 nM.
`COc1ccc(C(O)c2cc(-c3cnnc4cc(N5CCOCC5)ccc34)c(F)cc2Cl)nn1` (single isomer, unassigned) [Embodiment 4] gave an IC50 in data set [1] of 587 nM.
In data set [1], `COc1ccc(C(O)c2cc(-c3ccnc4c(Cl)c(N5CCOCC5)ccc34)c(F)cc2Cl)nn1` (single isomer, unassigned) [Embodiment 5] came in with an IC50 of 307 nM.
For the compound `COc1ccc(C(O)c2cc(-c3ccnc4c(Cl)c(N5CCOCC5)ccc34)c(F)cc2Cl)nn1` (single isomer, unassigned) [Embodiment 6], the IC50 in data set [1] was determined as 8 nM.
In the case of `COc1ccc(C(O)c2cc(-c3cnnc4c(F)c(N5CCOCC5)ccc34)c(F)cc2Cl)nn1` (single isomer, unassigned) [Embodiment 8], the IC50 in data set [1] amounted to 138 nM.
Turning to `COc1ccc(C(O)c2cc(-c3cc(N)nc4c(F)c(N5CCOCC5)ccc34)c(F)cc2Cl)nn1` (single isomer, unassigned) [Embodiment 9], the IC50 in data set [1] worked out at 840 nM.
The same measure, in the same setting: the figure for `COc1ccc(C(O)c2cc(-c3cc(N)nc4c(F)c(N5CCOCC5)ccc34)c(F)cc2Cl)nn1` (single isomer, unassigned) [Embodiment 10] is 0.5 nM; for `COc1ccc(C(O)c2cc(-c3cc(N)nc4cc(N5CCOCC5)ccc34)c(F)cc2Cl)nn1` (single isomer, unassigned) [Embodiment 12] it is 657 nM; for `COc1ccc(C(O)c2cc(-c3cc(N)nc4cc(N5CCOCC5)cc(F)c34)c(F)cc2Cl)nn1` (single isomer, unassigned) [Embodiment 14] it is 2.7 nM.
The compound `COc1ccc(C(O)c2cc(-c3cc(C(F)F)nc4cc(N5CCOCC5)ccc34)c(F)cc2Cl)nn1` (single isomer, unassigned) [Embodiment 15] came in with a half-inhibitory concentration (IC50) in data set [1] of 71 nM.
The compound `COc1ccc(C(O)c2cc(-c3cc(C(F)F)nc4cc(N5CCOCC5)ccc34)c(F)cc2Cl)nn1` (single isomer, unassigned) [Embodiment 16] registered an IC50 in data set [1] of 4250 nM.
In the case of `Cc1nccnc1C(O)c1cc(-c2cnnc3c(F)c(N4CCOCC4)cc(F)c23)c(F)cc1Cl` (single isomer, unassigned) [Embodiment 18], the IC50 in data set [1] is 33 nM.
In data set [1], `COc1ccc(C(O)c2cc(-c3cnnc4c(F)c(N5CCOCC5)cc(F)c34)c(F)cc2Cl)nn1` (single isomer, unassigned) [Embodiment 20] came in with an IC50 of 136 nM.
The same measure, in the same setting: the figure for `COc1ccc(C(O)c2cc(-c3ccnc4c(F)c(N5CCOCC5)cc(F)c34)c(F)cc2Cl)nn1` (single isomer, unassigned) [Embodiment 21] is 76 nM.
Consider `COc1ccc(C(O)c2cc(-c3ccnc4c(F)c(N5CCOCC5)cc(F)c34)c(F)cc2Cl)nn1` (single isomer, unassigned) [Embodiment 22], for which the IC50 in data set [1] is 0.8 nM. Moreover, the IC50 in data set [2] came to 47 nM. The compound also showed an IC50 in data set [3] of 43 nM. In addition, the “Tlast” value in data set [4] (IV(1 mg/kg), mouse plasma) was found to be 8.00 h. Also, the “Tlast” value in data set [4] (PO(2 mg/kg), mouse plasma) turned out to be 8.00 h. This compound also showed a bioavailability in data set [4] (female, Balb/c, plasma, PO(2 mg/kg), mouse) of 50%. In addition, in data set [4] (setting [6]), the AUC(0-t) was 1.98 µM·h, the C0 was 1380 nM, the clearance came to 15.4 mL/min/kg and the half-life was 1.89 h. The Vd in data set [4] (female, Balb/c, IV(1 mg/kg), mouse plasma, read-out: Vdss) worked out at 2.32 L/kg. Also, in data set [4] (setting [7]), the AUC(0-t) stood at 1.98 µM·h, the concentration peaked (Cmax) at 456 nM and the half-life was 6.25 h. Also, in data set [4] (female, Balb/c, PO(2 mg/kg), mouse plasma, read-out: Tmax), the Tmax was determined as 1 h.
Consider `Cc1nccnc1C(O)c1cc(-c2ccnc3c(F)c(N4CCOCC4)cc(F)c23)c(F)cc1Cl` (single isomer, unassigned) [Embodiment 24], for which the IC50 in data set [1] turned out to be 5.7 nM.
Same read-out and setting: the value for `COc1ccc(C(O)c2cc(-c3cc(OC)nc4cc(N5CCOCC5)ccc34)c(F)cc2Cl)nn1` (single isomer, unassigned) [Embodiment 25] was 13100 nM; that for `COc1ccc(C(O)c2cc(-c3cnnc4c(F)c(N5CCOCC5)ccc34)c(F)cc2Cl)nn1` (centres unmarked) [Embodiment 7] was 1.5 nM.
Regarding `COc1ccc(C(O)c2cc(-c3cc(N)nc4cc(N5CCOCC5)ccc34)c(F)cc2Cl)nn1` (centres unmarked) [Embodiment 11], in data set [1], the half-maximal inhibitory concentration (IC50) was 4.7 nM.
For the compound `COc1ccc(C(O)c2cc(-c3cc(N)nc4cc(N5CCOCC5)cc(F)c34)c(F)cc2Cl)nn1` (centres unmarked) [Embodiment 13], the IC50 in data set [1] came out at 141 nM.
In the case of `Cc1nccnc1C(O)c1cc(-c2cnnc3c(F)c(N4CCOCC4)cc(F)c23)c(F)cc1Cl` (centres unmarked) [Embodiment 17], the midpoint of inhibition in data set [1], the IC50, lay at 15 nM.
Turning to `Cc1nccnc1C(O)c1cc(-c2ccnc3c(F)c(N4CCOCC4)cc(F)c23)c(F)cc1Cl` (centres unmarked) [Embodiment 23], 8.7 nM corresponded to half-maximal inhibition in data set [1] (IC50).
On to `COc1cc([C@@H]2c3cc4c(cc3[C@@H](O[C@@H]3O[C@@H]5CO[C@@H](C)O[C@H]5[C@H](O)[C@H]3O)[C@H]3COC(=O)[C@H]23)OCO4)cc(OC)c1O` [Etoposide, etoposide, reference compound], for which, in data set [5], the “RTV (24th day)” value was determined as 6.09 ± 0.85, the “T/C (%) (24th day)” value is on record as 75.6% and the “TGI (%) (24th day)” value is reported as 33.4%. For the same compound, in data set [5] (average ± SEM, n = 9), the “Tumor volume (mm^3) (0th day)” value came out at 114 ± 9 mm^3 and the “Tumor volume (mm^3) (24th day)” value is on record as 654 + 48 mm^3.

For orientation: IC50 means the concentration that inhibits the measured activity by half. A higher IC50 goes with a need for much substance. The bioavailability is dose-corrected exposure relative to a reference, in per cent. A lower bioavailability goes with little systemic uptake. A word on the AUC(0-t): it is exposure summed from dosing to a finite time, without extrapolation to infinity. Read a low AUC(0-t) as low exposure. One may read the half-life as the time in which the quantity being followed falls by half. Read a high half-life as slow decline. As usually defined, the Cmax is the highest concentration seen after dosing. What is called Tmax is the time from dosing to the highest level.
